{
  "source": "ChEMBL document CHEMBL1201862",
  "about": "“PubChem BioAssay data set” (2004)",
  "experiment_in_all_cases": "NCI tumour cell line growth inhibition, 48 h",
  "key": {"UACC-257": {"tested_on": "UACC-257"}, "UACC-62": {"tested_on": "UACC-62"}, "HT-29": {"tested_on": "HT-29"}, "M14": {"tested_on": "M14"}, "A549": {"tested_on": "A549"}, "MDA-MB-231": {"tested_on": "MDA-MB-231"}, "SF-268": {"tested_on": "SF-268"}, "NCI-H226": {"tested_on": "NCI-H226"}, "SN12C": {"tested_on": "SN12C"}, "HCC 2998": {"tested_on": "HCC 2998"}, "SK-MEL-5": {"tested_on": "SK-MEL-5"}, "786-0": {"tested_on": "786-0"}, "RPMI-8226": {"tested_on": "RPMI-8226"}, "PC-3": {"tested_on": "PC-3"}, "T47D": {"tested_on": "T47D"}, "SK-OV-3": {"tested_on": "SK-OV-3"}, "CAKI-1": {"tested_on": "CAKI-1"}, "NCI-H460": {"tested_on": "NCI-H460"}, "HOP-92": {"tested_on": "HOP-92"}, "OVCAR-5": {"tested_on": "OVCAR-5"}},
  "note": "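Exposure lasted 48 hours, with cells grown in 96-well plates and compounds tested at five concentrations. The concentration for 50% growth inhibition is given as GI50.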 Calls of active or inactive are those of the source. Rule as the data show it: active = GI50 up to about 1.1 µM and inactive = higher.",
  "data": [
    {"smiles": "CCOC(=O)N1CCN(c2c(C)nc(C)nc2O)CC1", "values": [
      {"measurement": "GI50", "setting": "UACC-257", "result": "> 100 µM (inactive)"},
      {"measurement": "GI50", "setting": "UACC-62", "result": "> 100 µM (inactive)"},
      {"measurement": "GI50", "setting": "HT-29", "result": "> 100 µM (inactive)"},
      {"measurement": "GI50", "setting": "M14", "result": "> 100 µM (inactive)"},
      {"measurement": "GI50", "setting": "A549", "result": "> 100 µM (inactive)"},
      {"measurement": "GI50", "setting": "MDA-MB-231", "result": "> 100 µM (inactive)"},
      {"measurement": "GI50", "setting": "SF-268", "result": "> 100 µM (inactive)"},
      {"measurement": "GI50", "setting": "NCI-H226", "result": "> 100 µM (inactive)"},
      {"measurement": "GI50", "setting": "SN12C", "result": "> 100 µM (inactive)"},
      {"measurement": "GI50", "setting": "HCC 2998", "result": "> 100 µM (inactive)"},
      {"measurement": "GI50", "setting": "SK-MEL-5", "result": "> 100 µM (inactive)"},
      {"measurement": "GI50", "setting": "786-0", "result": "> 100 µM (inactive)"},
      {"measurement": "GI50", "setting": "RPMI-8226", "result": "> 100 µM (inactive)"},
      {"measurement": "GI50", "setting": "PC-3", "result": "> 100 µM (inactive)"},
      {"measurement": "GI50", "setting": "T47D", "result": "> 100 µM (inactive)"},
      {"measurement": "GI50", "setting": "SK-OV-3", "result": "> 100 µM (inactive)"},
      {"measurement": "GI50", "setting": "CAKI-1", "result": "> 100 µM (inactive)"},
      {"measurement": "GI50", "setting": "NCI-H460", "result": "> 100 µM (inactive)"},
      {"measurement": "GI50", "setting": "HOP-92", "result": "> 100 µM (inactive)"}
    ]},
    {"smiles": "Cc1cccc(C)c1NC(=O)C(=O)CC(=O)c1sc(Nc2c(C)cccc2C)nc1C", "values": [
      {"measurement": "GI50", "setting": "UACC-257", "result": "> 100 µM (inactive)"},
      {"measurement": "GI50", "setting": "UACC-62", "result": "> 100 µM (inactive)"},
      {"measurement": "GI50", "setting": "HT-29", "result": "> 100 µM (inactive)"},
      {"measurement": "GI50", "setting": "M14", "result": "> 100 µM (inactive)"},
      {"measurement": "GI50", "setting": "A549", "result": "> 100 µM (inactive)"},
      {"measurement": "GI50", "setting": "MDA-MB-231", "result": "> 100 µM (inactive)"},
      {"measurement": "GI50", "setting": "SF-268", "result": "> 100 µM (inactive)"},
      {"measurement": "GI50", "setting": "NCI-H226", "result": "> 100 µM (inactive)"},
      {"measurement": "GI50", "setting": "SN12C", "result": "> 100 µM (inactive)"},
      {"measurement": "GI50", "setting": "HCC 2998", "result": "> 100 µM (inactive)"},
      {"measurement": "GI50", "setting": "786-0", "result": "> 100 µM (inactive)"},
      {"measurement": "GI50", "setting": "OVCAR-5", "result": "> 100 µM (inactive)"},
      {"measurement": "GI50", "setting": "RPMI-8226", "result": "> 100 µM (inactive)"},
      {"measurement": "GI50", "setting": "PC-3", "result": "> 100 µM (inactive)"},
      {"measurement": "GI50", "setting": "T47D", "result": "> 100 µM (inactive)"},
      {"measurement": "GI50", "setting": "SK-OV-3", "result": "> 100 µM (inactive)"},
      {"measurement": "GI50", "setting": "CAKI-1", "result": "> 100 µM (inactive)"},
      {"measurement": "GI50", "setting": "NCI-H460", "result": "> 100 µM (inactive)"},
      {"measurement": "GI50", "setting": "HOP-92", "result": "> 100 µM (inactive)"}
    ]},
    {"smiles": "C/C=C/C1OC(O)(C(C)C(O)[C@H](C)C2OC(=O)/C(OC)=C/C(C)=C/[C@@H](C)[C@@H](O)[C@@H](C)C(O)C(C)C/C(C)=C/C=C/C2OC)C[C@@H](OC2CC(O)C(OC(N)=O)C(C)O2)C1C", "note": "(some centres not stated)", "values": [
      {"measurement": "GI50", "setting": "UACC-257", "result": "< 0.01 µM (active)"},
      {"measurement": "GI50", "setting": "UACC-62", "result": "< 0.01 µM (active)"},
      {"measurement": "GI50", "setting": "HT-29", "result": "< 0.01 µM (active)"},
      {"measurement": "GI50", "setting": "M14", "result": "< 0.01 µM (active)"},
      {"measurement": "GI50", "setting": "A549", "result": "< 0.01 µM (active)"},
      {"measurement": "GI50", "setting": "MDA-MB-231", "result": "< 0.01 µM (active)"},
      {"measurement": "GI50", "setting": "SF-268", "result": "< 0.01 µM (active)"},
      {"measurement": "GI50", "setting": "NCI-H226", "result": "< 0.01 µM (active)"},
      {"measurement": "GI50", "setting": "SN12C", "result": "< 0.01 µM (active)"},
      {"measurement": "GI50", "setting": "HCC 2998", "result": "< 0.01 µM (active)"},
      {"measurement": "GI50", "setting": "SK-MEL-5", "result": "< 0.01 µM (active)"},
      {"measurement": "GI50", "setting": "786-0", "result": "< 0.01 µM (active)"},
      {"measurement": "GI50", "setting": "RPMI-8226", "result": "< 0.01 µM (active)"},
      {"measurement": "GI50", "setting": "PC-3", "result": "< 0.01 µM (active)"},
      {"measurement": "GI50", "setting": "T47D", "result": "< 0.01 µM (active)"},
      {"measurement": "GI50", "setting": "SK-OV-3", "result": "2.47 µM (inactive)"},
      {"measurement": "GI50", "setting": "CAKI-1", "result": "< 0.01 µM (active)"},
      {"measurement": "GI50", "setting": "NCI-H460", "result": "< 0.01 µM (active)"},
      {"measurement": "GI50", "setting": "HOP-92", "result": "< 0.01 µM (active)"}
    ]}
  ]
}
